Consider 10 compounds from patent US20200061038A1, “THERAPEUTIC AGENT FOR FIBROSIS AND INHIBITOR OF NUCLEAR TRANSLOCATION OF PHOSPHORYLATED SMAD” (NATIONAL UNIVERSITY CORPORATION CHIBA UNIVERSITY, priority 2016, published 2020).

The test system of experiment [1] is Smad2. Nature of the experiment: Smad2 phosphorylation (western blot) in HFL1 cells. Format: cell-based, human. To be noted: for phosphorylation level of Smad2 (ROCK pathway): Y27632 20 μM, Cytochalasin B 2 μM; for phosphorylation level of Smad2 (ROCK pathway) / phosphorylation level of Smad2 due to TGFβ1 treatment (PKC inhibitors): TGFβ1 10 ng/mL; for phosphorylation level of Smad2 due to TGFβ1 treatment (PKC inhibitors): GF109203X 10 μM, Rottlerin 1 μM. On the technique in general: Immunoblotting shows a protein as a band on a membrane.
Experimental: HFL1 cells were inoculated onto a six-well plate by 1.0×10^5 cells/well, and then cultured in 2.0 mL of DMEM containing 10% FBS, to achieve 70% confluence. The cells were washed using Hanks' balanced salt solution (HBSS) containing 0.1% bovine serum albumin (BSA) (4.2 mM NaHCO3, 137 mM NaCl, 5.36 mM KCl, 0.4 mM MgSO4.7H2O, 0.34 mM Na2HPO4.12H2O, 5.55 mM glucose, 0.44 mM KH2PO4, 0.72 mM CaCl2.H2O, pH=7.4), and then cultured in a DMEM containing 0.1% BSA for 48 hours without serum.
Thereafter, the medium was replaced by a DMEM containing 0.1% BSA, and stimulation was given for a specified period using each reagent (each inhibitor was applied 30 minutes before the stimulant), after which the cells were collected on ice using 100 μL of RIPA buffer (150 mM NaCl, 50 mM Tris-HCl, 5 mM EDTA, 5 mM NaF, 10 mM sodium pyrophosphate dibasic, 1% Nonidet P-40, 0.1% sodium dodecyl sulfate, 0.5% sodium deoxycholate, pH 8.0) containing 10 μg/mL aprotinin, 10 μg/mL leupeptin, and phenyl methyl sulfonyl fluoride (PMSF) as a protease inhibitor.
The cells were crushed according to the vortex method, centrifuged under the conditions of 15000 rpm and 4° C. for 30 minutes, and the supernatant was taken as a sample. Quantitative determination of protein was performed according to the Bradford method, and a specified amount of protein was separated by SDS-polyacrylic amide gel electrophoresis. The protein was transferred onto a polyvinylidene difluoride (PVDF) film, blocked for 1 hour at room temperature, with a primary antibody applied overnight at 4° C., and a secondary antibody applied for 1 hour at room temperature.
Thereafter, the PVDF film was soaked in an ECL solution and fluorometric detection was performed using an image capture/analysis system (ChemiDocMP System manufactured by Bio-Rad). The detected bands were converted to numerical values using image processing software (ImageJ).

The subject of a further experiment is αSMA. Description: αSMA expression (western blot) in TGFβ1-stimulated HFL1 cells. Format: cell-based, human. As to conditions: for increase in the αSMA expression level due to TGFβ1 (PKC inhibitors): GF109203X 10 μM, Rottlerin 1 μM, GO06976 0.5 μM and 1.0 μM, 30 minutes before TGFβ1 10 ng/mL; for αSMA expression level recovered, relative to the level when TGFβ1 alone was applied: used together with PPMP (3 μM), lactosylceramide 10 μM. On the procedure:
Human pulmonary fibroblast (HFL1) (ATCC CCL-153) cells were cultured under the conditions of 95% air-5% CO2 and 37° C., using a Dulbecco's Modified Eagle Medium (DMEM) containing 10% fetal bovine serum (FBS), 100 μg/mL streptomycin, and 66.7 μg/mL penicillin.
How an increase in lactosylceramide synthesis activity due to TGFβ1 affects the fibrosing of tissues was examined based on the expression level of αSMA, which is a fibrosing marker protein.

Experiment [2] has as its system Smad2. Description: Smad2 nuclear localization (immunofluorescent staining, confocal) in HFL1 cells. It counts as cell-based, human. To be noted: TGFβ1 10 ng/mL; for nuclear localization of Smad2 due to TGFβ1 (PKC inhibitors): GF109203X 10 μM, Rottlerin 1 μM, GO06976 1 μM. On the procedure:
For immunostaining of Smad and phosphorylated Smad, ribonuclease A (RNase, Worthington Biochemical) (200 μg/mL, room temperature, 30 minutes) and propidium iodide (PI, Cayman Chemical) (20 μg/mL, room temperature, 30 minutes) were applied to stain the nucleus, and the stained images were observed using a confocal microscope (FV500 manufactured by Olympus).
When localization of Smad2/3 was observed, on the other hand, Smad2/3 accumulated in the nucleus in 3 hours after the single stimulation of TGFβ1 (10 ng/mL).

Another experiment concerns PKCδ. Description: Translocation of PKCδ into the cellular membrane in HFL1 cells. It counts as cell-based, human. How it is done:
HFL1 cells were inoculated onto a 3.5-cm glass-bottom dish by 1.0×10^4 cells/dish, and then cultured in 2.0 mL of DMEM containing 10% FBS, to achieve 70% confluence. The cells were washed in HBSS containing 0.1% BSA, and then cultured in DMEM containing 0.1% BSA for 48 hours without serum.
Thereafter, the medium was replaced by a DMEM containing 0.1% BSA, and stimulation was given for a specified period using each reagent (each inhibitor was applied 30 minutes before the stimulant), after which each sample was fixed with 4% paraformaldehyde (PFA) at 4° C. for 15 minutes. Thereafter, as deemed appropriate, the sample was permeabilized (0.3% saponin, room temperature, 1 hour) and blocked (3% BSA, room temperature, 1 hour), with a primary antibody applied overnight at 4° C., and a secondary antibody applied for 1 hour at room temperature. For immunostaining of Smad and phosphorylated Smad, ribonuclease A (RNase, Worthington Biochemical) (200 μg/mL, room temperature, 30 minutes) and propidium iodide (PI, Cayman Chemical) (20 μg/mL, room temperature, 30 minutes) were applied to stain the nucleus, and the stained images were observed using a confocal microscope (FV500 manufactured by Olympus).
In general, activation of PKC is observed in the form of its translocation into the cellular membrane; accordingly, involvement of lactosylceramide was examined using the translocation of PKCδ into the cellular membrane as an indicator.

For experiment [3], the system named is idiopathic pulmonary fibrosis. As to conditions: patients suffering from idiopathic pulmonary fibrosis; Non-patent Literature 2; cited from earlier work.

`C=C1[C@@H](C)[C@H]2[C@H](Cc3ccccc3)NC(=O)[C@]23OC(=O)/C=C/[C@H](O)CCC[C@@H](C)C/C=C/[C@H]3[C@@H]1O` [Cytochalasin B]: the “phosphorylation level of Smad2 (ROCK pathway)” value with Smad2 [1] is given as “the phosphorylation level did not change”.
With `CN(C)CCCn1cc(C2=C(c3c[nH]c4ccccc34)C(=O)NC2=O)c2ccccc21` [GF109203X], the “phosphorylation level of Smad2 due to TGFβ1 treatment (PKC inhibitors)” value in the experiment with Smad2 [1] is “no change was observed”. The “increase in the αSMA expression level due to TGFβ1 (PKC inhibitors)” value (“increase … (PKC inhibitors)” below) in the experiment on αSMA is “suppressed significantly”. In addition, the “nuclear localization of Smad2 due to TGFβ1 (PKC inhibitors)” value (shortened to “nuclear localization … (PKC inhibitors)”) with Smad2 [2] is recorded as “suppressed significantly”.
Turning to `Cn1c2ccccc2c2c3c(c4c5ccccc5n(CCC#N)c4c21)CNC3=O` [GO06976], the “increase … (PKC inhibitors)” value with αSMA was “did not suppress the increase in the αSMA expression level”. Also, the “nuclear localization … (PKC inhibitors)” value with Smad2 [2] is recorded as “did not change”.
Regarding `CCCCCCCCCCCCCC(=O)O[C@@H]1[C@@H](C)[C@@]2(O)[C@@H](C=C(CO)C[C@]3(O)C(=O)C(C)=C[C@@H]23)[C@@H]2C(C)(C)[C@]12OC(C)=O` [PMA, phorbol myristate acetate], in the experiment with αSMA (PMA 100 nM overnight treatment, TGFβ1 10 ng/mL), the “increase in the αSMA expression level due to TGFβ1 (PKC down-regulation)” value is on record as “suppressed the increase in the αSMA expression level”.
Consider `CC(=O)c1c(O)c(C)c(O)c(Cc2c(O)c3c(c(C(=O)/C=C/c4ccccc4)c2O)OC(C)(C)C=C3)c1O` [Rottlerin], for which the “phosphorylation level of Smad2 due to TGFβ1 treatment (PKC inhibitors)” value with Smad2 [1] was “no change was observed”. The “increase … (PKC inhibitors)” value with αSMA is on record as “suppressed significantly”. For the same compound, in the experiment on Smad2 [2], the “nuclear localization … (PKC inhibitors)” value is recorded as “suppressed significantly”. Further, in the experiment with PKCδ (PPMP 3 μM, Rottlerin 1 μM applied beforehand, two hours after TGFβ1 10 ng/mL), the “translocation of PKCδ into the cellular membrane due to TGFβ1” value is given as “translocation of PKCδ into the cellular membrane was suppressed”.
For `C[C@@H](N)[C@H]1CC[C@H](C(=O)Nc2ccncc2)CC1` [Y27632], in the experiment on Smad2 [1], the “phosphorylation level of Smad2 (ROCK pathway)” value is reported as “the phosphorylation level did not change”.
Turning to `COC(=O)c1ccc2c(c1)NC(=O)/C2=C(\Nc1ccc(N(C)C(=O)CN2CCN(C)CC2)cc1)c1ccccc1` [nintedanib], in experiment [3], the “forced vital capacities of patients” value is listed as “improve the forced vital capacities” and the “survival periods of patients” value was “cannot extend the survival periods”.
`Cc1ccc(=O)n(-c2ccccc2)c1` [pirfenidone]: in experiment [3], the “forced vital capacities of patients” value is recorded as “improve the forced vital capacities” and the “survival periods of patients” value is on record as “cannot extend the survival periods”.
Take glucosylceramide: in the experiment on αSMA (TGFβ1 10 ng/mL), the “αSMA expression level recovered, relative to the level when TGFβ1 alone was applied” value is reported as “approx. 80%”.
In the case of lactosylceramide, the “phosphorylation of Smad2 by the substance alone” value in the experiment with Smad2 [1] (lactosylceramide 10 μM alone, no TGFβ1) is reported as “did not cause phosphorylation of Smad2”. Moreover, the “recovery of the αSMA expression level suppression action” value in the experiment with αSMA (lactosylceramide 10 μM in combined use with PPMP or NB-DNJ, TGFβ1 10 ng/mL) was “led to a recovery of the αSMA expression level suppression action”. Further, in the experiment with αSMA (TGFβ1 10 ng/mL), the “αSMA expression level recovered, relative to the level when TGFβ1 alone was applied” value is listed as “approx. 95%”. The “accumulation of Smad2 in the nucleus, combined use with PPMP” value with Smad2 [2] (lactosylceramide 10 μM combined with PPMP) is “led to a recovery of the suppression action due to PPMP, and Smad2 accumulated in the nucleus”. In addition, in the experiment with PKCδ (lactosylceramide 10 μM alone), the “time the localization of PKCδ on the cellular membrane was sustained” value is reported as “at least 30 minutes”. In addition, in the experiment with PKCδ (lactosylceramide 10 μM alone, five minutes after the stimulation), the “translocation of PKCδ into the cellular membrane by the substance alone” value is reported as “translocation of PKCδ into the cellular membrane was observed”.
